From the supplement of paper PMC11962398

Key:
BI-2493 [1] = compound: T1, C[C@H]1CNCCN1c1nccc(-c2noc3c2CCC[C@@]32CCCc3sc(N)c(C#N)c32)n1 [BI-2493]; settings: 5 days
Description: (§1)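 PRISM pooled barcoded cancer cell line viability screen (Broad Institute) with BI-2493 at 8 doses in threefold dilutions from 0.00457 to 10 µmol/L, 5-day treatment; curves fitted per cell line. IC50 is undefined (placeholder) for resistant lines. AUC is capped at 1, and sensitivity is reported as 1 − AUC.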

BI-2493 [2] = compound: T1, BI-2493; experiment: 1 - AUC of viability dose-response curve (sensitivity) (fraction); higher = more sensitive; settings: 5 days
Description: as §1

Test System	IC50 of cell viability (BI-2493 [1]) [µM]	1 - AUC of viability dose-response curve (BI-2493 [2])
NCIH661_LUNG	9.34	0.155
NCIH727_LUNG	6.54	0.129
NCIH747_LARGE_INTESTINE	0.323	0.384
NCIH838_LUNG	7.55	0.0686
NCIH841_LUNG	6.98	0.162
NCIH1048_LUNG	6.78	0.0696
NCIH1092_LUNG	3.99	0.131
NCIH1299_LUNG	8.5	0.0368
NCIH1339_LUNG	6.82	0.0455
NCIH1341_LUNG	> 10	0.146
NCIH1355_LUNG	2.46	0.219
NCIH1435_LUNG	4.95	0.0748
NCIH1437_LUNG	4.73	0.153
NCIH1563_LUNG	9.88	0.00763
NCIH1568_LUNG	7.78	0.0444
NCIH1573_LUNG	7.27	0.0775
NCIH1581_LUNG	8.08	0.0823
NCIH1623_LUNG	9.93	0.0102
NCIH1648_LUNG	1.57	0.26
NCIH1650_LUNG	8.06	0.042
NCIH1694_LUNG	> 10	0.00415
NCIH1703_LUNG	> 10	0.0509
NCIH1792_LUNG	1.04	0.342
NCIH1793_LUNG	8.29	0.16
NCIH1838_LUNG	> 10	0.0993

Test System	IC50 of cell viability (BI-2493 [1]) [µM]	1 - AUC of viability dose-response curve (BI-2493 [2])
NCIH1876_LUNG	3.89	0.0823
NCIH1915_LUNG	9.46	0.0137
NCIH1944_LUNG	8.69	0.22
NCIH1975_LUNG	6.8	0.0712
NCIH2004RT_SOFT_TISSUE	> 10	0.0737
NCIH2009_LUNG	5.8	0.149
NCIH2023_LUNG	2.57	0.208
NCIH2030_LUNG	3.34	0.206
NCIH2077_LUNG	8.95	0.182
NCIH2087_LUNG	3.99	0.104
NCIH2110_LUNG	6.61	0.0708
NCIH2122_LUNG	3.6	0.138
NCIH2126_LUNG	9.82	0.142
NCIH2170_LUNG	> 10	0.0861
NCIH2171_LUNG	9.88	0.0377
NCIH2172_LUNG	8.7	0.0555
NCIH2228_LUNG	7.89	0.0876
NCIH2347_LUNG	4.63	0.138
NCIH2444_LUNG	6.69	0.102
NCIH2452_PLEURA	> 10	0.00394
NCIN87_STOMACH	9.6	0.00691
NCO2_HAEMATOPOIETIC_AND_LYMPHOID_TISSUE	4.33	0.117
NIHOVCAR3_OVARY	8.37	0.103
NOMO1_HAEMATOPOIETIC_AND_LYMPHOID_TISSUE	0.331	0.38
NOZ_LIVER	9.22	0.0154
